The test system of data set [1] is human PBMC co-cultured with 4T1-D02 (Nectin4+). The data set can be described thus: Human PBMC-4T1 co-culture (cytokine release) assay. The format is cell-based. Particulars: anti-CD3 stimulated PBMC, 48 hours. An outline of the steps:
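Healthy-donor human PBMCs co-cultured 5:1 with murine Nectin-4-overexpressing 4T1-D02 cells, stimulated with 125 ng/ml soluble anti-CD3 (OKT3) plus test compounds. IL-2 and IFNγ in 48 h supernatants measured by HTRF and interpolated from standard curves; three donors, each in duplicate.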

Data set [2] can be described thus: Pharmacokinetics of CD137 bispecifics in SD rats. The data set is classed as in vivo. The following applies: SD Rat, 2 mg/kg IV, plasma. On the procedure: Male SD Rats were dosed with 2 mg/kg of each Bicycle multimer formulated in 25 mM Histidine HCl, 10% sucrose pH 7. Serial bleeding (about 80 μL blood/time point) was performed via submadibular or saphenous vein at each time point. All blood samples were immediately transferred into prechilled microcentrifuge tubes containing 2 μL K2-EDTA (0.5M) as anti-coagulant and placed on wet ice. Blood samples were immediately processed for plasma by centrifugation at approximately 4° C., 3000 g. The precipitant including internal standard was immediately added into the plasma, mixed well and centrifuged at 12,000 rpm, 4° C. for 10 minutes. The supernatant was transferred into pre-labeled polypropylene microcentrifuge tubes, and then quick-frozen over dry ice. The samples were stored at […] or below as needed until analysis. 7.5 μL of the supernatant samples were directly injected for LC-MS/MS analysis using an Orbitrap Q Exactive in positive ion mode to determine the concentrations of Bicycle multimer. Plasma concentration versus time data were analyzed by non-compartmental approaches using the Phoenix WinNonlin 6.3 software program. C0, CI, Vdss, T½, AUC(0-last), AUC(0-inf), MRT(0-last), MRT(0-inf) and graphs of plasma concentration versus time profile were reported.

The test system of data set [3] is primary patient derived tumour cells. The data set can be described thus: Ex vivo culture of primary patient-derived lung tumours. The format is cell-based, human. The following applies: patient-derived lung tumour samples. How it is done: Primary patient derived tumour cells from Discovery Life Sciences (DLS) are thawed gently in 10 mL pre-warmed wash medium spiked fresh with Benzonase. The 3D spheroid kit from Greiner (cat #655840) is used to maintain cells in culture for 2 days. Briefly, tumour cells are counted with trypan blue using a haemocytometer. The cells are centrifuged at 1500 rpm for 5 min to wash, and the pellet is resuspended in 100 μL per 1×10^6 cells N3D nanoshuttle. To make them magnetic, cells are spun down at 1500 rpm for 5 min and resuspended; this process is repeated for a total of 4 times. After the final spin, cells are resuspended in the appropriate amount of fresh Lung DTC medium (DLS) to give 50,000-100,000 cells per well in 100 μL/well. Greiner cell-repellent, 96-well plates (cat #655976) are used for this experiment.
If there are cell clumps or debris visible, sample is applied to a 70-100 μm filter before plating. At least 50,000 cells per sample are reserved for a Day 0 flow cytometry panel, these cells are stained, fixed, and stored at 4° C. for later flow analysis. […] Cytokines are quantified using a custom-built cytokine/chemokine panel (IP-10, Granzyme B, IFNγ, IL-2, IL-6, TNFα, IL-8, MIP-1a, MIP-1b, MCP-1, IL-10, MIG) from R&D systems on a Luminex reader. […] Flow data is analysed with Flowjo software.

Data set [4] concerns the target CD137 (Homo sapiens, UniProt Q07011). Put plainly: CD137 reporter assay, co-culture with Nectin-4 tumour cells.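 Note: jurkat reporter cells co-cultured with tumour cells and test article for 6 h, luminescence signal relative to Jurkat plus tumour cells lacking test article.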 The format is cell-based. Set-up: host or cells: Jurkat reporter cells. (In a reporter assay the amount or activity of a reporter protein is the signal.)

Results on one compound are retold here after patent US11453703B2, “Heterotandem bicyclic peptide complexes” (BicycleTX Limited, priority 2018, dated 2022).

Sequence of CD137 (Q07011 24-255): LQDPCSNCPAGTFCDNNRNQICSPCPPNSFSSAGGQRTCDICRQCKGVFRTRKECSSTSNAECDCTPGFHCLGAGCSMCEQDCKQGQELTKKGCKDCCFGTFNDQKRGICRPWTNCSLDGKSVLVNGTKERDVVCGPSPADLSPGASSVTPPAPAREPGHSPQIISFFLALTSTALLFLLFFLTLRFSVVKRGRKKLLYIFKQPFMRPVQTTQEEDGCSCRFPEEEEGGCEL

`CCCC[C@@H]1NC(=O)[C@H](Cc2ccc(O)cc2)NC(=O)[C@@H]2CCCN2C(=O)[C@H](CC(=O)O)NC(=O)[C@H](C)NC(=O)[C@H](Cc2ccccc2)NC(=O)[C@@H]2CSCCC(=O)N3CN(CN(C3)C(=O)CCSC[C@@H](C(=O)N[C@@H](C)C(N)=O)NC1=O)C(=O)CCSC[C@H](NC(C)=O)C(=O)N[C@@H](CC(C)(C)C)C(=O)N1CCC[C@H]1C(=O)N[C@@H](CCC(=O)O)C(=O)N[C@H](CCCCNC(=O)CCc1cn(CCOCCOCCOCCOCCOCCC(=O)N[C@H]3CSCCC(=O)N4CN5CN(C4)C(=O)CCSC[C@H](NC(=O)[C@@H](CC(=O)O)NC(=O)[C@H](Cc4cccc6ccccc46)NC(=O)[C@@H]4CCCN4C3=O)C(=O)N[C@@H](CCSC)C(=O)N[C@@H](CCCCNC(=N)N)C(=O)N[C@@H](CC(=O)O)C(=O)N[C@@H](Cc3c[nH]c4ccccc34)C(=O)N[C@@H](CO)C(=O)N[C@@H]([C@@H](C)O)C(=O)N3CCC[C@H]3C(=O)N3C[C@H](O)C[C@H]3C(=O)N[C@@H](Cc3c[nH]c4ccccc34)C(=O)N[C@H](C(N)=O)CSCCC5=O)nn1)C(=O)N1CCC[C@H]1C(=O)N[C@@H](Cc1ccc(O)cc1)C(=O)N2` [BCY10572]: the EC50 in data set [1] (IFN-γ secretion) stood at 0.25 nM; in data set [4] it was 0.44 nM. Also, in data set [1], the “max IFN-y” value turned out to be 17915 pg/mL. The T½ in data set [2] turned out to be 55.6 min. The clearance in data set [2] (male, Sprague-Dawley (SD), read-out: Clp) is 15.6 mL/min/kg. Besides, the Vd in data set [2] (male, Sprague-Dawley (SD), read-out: Vdss) came out at 0.882 L/kg. In addition, the “change in immune markers (normalized to vehicle)” value in data set [3] (48 h (FIG. 8)) was “induced Nectin-4 dependent change in several immune markers”. Further, the “change in % CD8+ki67+ T cells” value in data set [3] (Day 2 flow (FIG. 8)) was “induced Nectin-4 dependent change”. Also, the “Fold Induction over Background” value in data set [4] (tumour target Nectin4, co-culture with H1376, 6 h) amounted to 55 fold.

Broadly, the EC50 is the concentration needed to bring the measured effect to its halfway point.
